The data set is described as follows: Wide-angle X-ray scattering. Format: physicochemical. The settings on record: FIG. 1. From the text: The scattering plots for active ingredient (top) and dry powder from 1b) (bottom) are depicted in FIG. 1. The ritonavir starting material is crystalline, as proven by the X-ray diagram which is characterized by a number of sharp interferences. […] This also applies to the ancillary substances lactose and ascorbyl palmitate which are otherwise crystalline.

The structures appear in SMILES notation.

The results in this text go back to patent US7687071B1, “Nanoparticulate core shell systems and the use thereof in pharmaceutical and cosmetic preparation” (BASF Aktiengesellschaft, priority 1998, dated 2010).

`CC(C)c1nc(CN(C)C(=O)N[C@H](C(=O)N[C@@H](Cc2ccccc2)C[C@H](O)[C@H](Cc2ccccc2)NC(=O)OCc2cncs2)C(C)C)cs1` [ritonavir]: the “solid state by X-ray scattering plot” value is “crystalline”.
